From PMC8689653 (ACS Catalysis, 2021)

Tested on: Lp-NOX
Assay: NADH oxidation, absorbance at […] nm, Michaelis-Menten fit
Format: biochemical, Lactiplantibacillus pentosus
Conditions: free enzyme; 0.2 mM NADH, 0.025-0.2 mM flavin, 25 mM phosphate pH 7, 30 °C

Km [µM]	SMILES
215 ± 100	Cc1cc2nc3c(=O)[nH]c(=O)nc-3n(C[C@H](O)[C@H](O)[C@H](O)COP(=O)(O)O)c2cc1C [FMN]
41 ± 20	Cc1cc2nc3c(=O)[nH]c(=O)nc-3n(C[C@H](O)[C@H](O)[C@H](O)COP(=O)(O)OP(=O)(O)OC[C@H]3O[C@@H](n4cnc5c(N)ncnc54)[C@H](O)[C@@H]3O)c2cc1C [FAD]
